# Test results as given in patent US12528792B2, “Sulfonamide compounds and the use thereof in the treatment of cancer” (TROBIO THERAPEUTICS PTY LTD, priority 2019, dated 2026).
# Legend:
# [1] = biological target: F-actin/Tpm3.1 (Homo sapiens, UniProt P06753); assay: Actin depolymerisation assay; type: biochemical; settings: 50 μmol/L test compound, FIG. 1
# Experimental: A 12 μmol/L solution of labelled F-actin was prepared by polymerising the monomeric actin (35% pyrene labelled Rabbit Muscle (Cytoskeleton Inc)) into filaments in the presence of buffer T (100 mmol/L NaCl; 10 mmol/L Tris HCl PH 7.5; 2 mmol/L MgCl2; 1 mmol/L EGTA; 0.5 mmol/L DTT) with added ATP (0.2 mmol/L), for 1 hour in the dark at room temperature. Tpm3.1 (10 μmol/L) was reduced in buffer T containing 1 mmol/L DTT at 70° C. for 6 minutes and centrifuged at 60,000 rpm for 30 minutes to remove nonreduced dimers. […] Duplicate samples were diluted 12-fold using an F-actin polymerisation buffer (100 mmol/L NaCl; 10 mmol/L Tris HCl PH 7; 2 mmol/L MgCl2; 1 mmol/L EGTA; 0.2 mmol/L ATP; 1 mmol/L DTT) and the depolymerisation rates of F-actin alone, F-actin/Tpm3.1, and the F-actin/Tpm3.1/test compound filament complex were measured using a Costar 3915 fluorescence plate reader (407 nm) at 36-second intervals for 160 minutes at room temperature. Data were normalized to the initial fluorescence value and polymerisation curves of duplicate samples were fitted to a two-phase exponential decay model using OriginPro 9.1 (OriginLab) (FIG. 1A). Percent polymerisation was determined at t160 as a function of to (100%) (FIG. 1B, p<0.0001).
# [2] = test system: A2780 ovarian cancer cells; assay: Drug combination screen, 6x6 dose matrix, Bliss-independence synergy; type: cell-based; set-up: key to Max. Synergy, Vinorelbine: Bliss synergy score; 0 = no synergy, negative = antagonism; highest in matrix; key to Total Synergy, Vinorelbine: sum of Bliss synergy scores across the dose matrix; settings: 72 h (26*: 96-well plate format)
# Experimental: (§1) In vitro growth inhibition assays were performed as technical triplicate in two independent experiments and cell viability was assessed by Alamar Blue assay readout. Briefly, cells in logarithmic phase growth were seeded in 384-well plates in a 50 μL/well assay volume. Cells were seeded at 1,200 cells/well using a Multidrop 384 (Thermo Scientific) and allowed to adhere at 37° C. with 5% CO2, in a humidified atmosphere (LiCONIC incubator). After 24 hours incubation, test compounds, positive control (20 μM Thonzonium bromide, 100% kill) and vehicle only (0.4% DMSO) were added into wells of each assay plate using a Tecan HP D300 Digital Dispenser in technical triplicate under minimum light. Following 72 hours drug exposure, metabolic activity was detected by addition of 10% (v/v) Alamar Blue reagent to each assay well using a Multidrop Cambi (Thermo Scientific) and determined by measurement of fluorescence intensity (excitation 555 nm, emission 585 nm) using an EnSpire (Perkin Elmer) plate reader. Readings were performed at 0 hour (background) and after 6 hours alamar blue incubation at 37° C.
# The two drugs in each combination matrix were dispensed using a Tecan HP D300 Digital Dispenser. Assays were performed in triplicate for each drug combination (test compound/vinorelbine and test compound/paclitaxel combinations). Synergistic drug interactions were calculated from the averaged cell viability data using the methodology described below.
# Synergistic drug interactions were determined for each pa1rw1se drug combination by applying the Bliss-independence model that assumes independence of drug mechanisms. Prior to the analysis, percent cell viability (CV) for combination data were converted to fractional cell growth inhibition (GI) by the formula: […]
# The Bliss additivism model was used to calculate a predicted combined response C to two single agents with responses A and B (using GI values), as follows:
# The final score for any combination was reported as the difference between the value predicted by the additive model and the experimentally observed value, normalised to 100. Using GI values the maximum possible synergy score is 100, with 0 indicating no synergy and negative indicating possible antagonism. Scores were also reported as a “Max synergy” score, which is the highest individual synergy score for each combination matrix, and a “Total synergy” score, which was obtained by summation of each individual synergy score for the matrix.
# The single agent IC50 values for the test compounds and their synergy scores in combination with vinorelbine and paclitaxel are presented in Table 4. The data is listed as IC50 mean from technical triplicates for two independent experiments. The averaged IC50 concentrations for the single agents from both runs were then used to generate the 6×6 dose matrices in the synergy experiment. Synergy scores for each drug combination were calculated by the Bliss-independence model. The maximum synergy and total synergy scores for each combination in A2780 cells are listed.
# [3] = test system: A2780 ovarian cancer cells; assay: In vitro growth inhibition assay, Alamar Blue, single agent IC50; type: cell-based; settings: Homo sapiens, 72 h drug exposure, Alamar Blue, 384-well (26*: 96-well plate format), read-out: Single-agent IC50
# Experimental: as §1
# Each drug was tested as a 10-point concentration series with two-fold serial dilutions of each drug. The concentration series for compounds 6 and 8 was 100, 50, 25, 12.5, 6.25, 3.125, 1.563, 0.781, 0.391 and 0.195 μM and for compounds 24, 43 and 48 was 50, 25, 12.5, 6.25, 3.125, 1.563, 0.781, 0.391, 0.195 and 0.098 μM for the two independent experiments. The concentration series for vinorelbine and paclitaxel was 100, 50, 25, 12.5, 6.25, 3.125, 1.5625, 0.781, 0.391 and 0.195 nM. Thonzonium bromide (20 μM) and 0.4% DMSO were used as positive and vehicle controls, respectively. The IC50 value was calculated by derivation of the best-fit line using a sigmoidal dose response model (Activity Base Software Suite, IDES).
# Activity Base software suite (IDES, version 8.3.0.175) was used for data analysis. Cell survival is expressed as a percentage of viable cells. IC50 concentrations were calculated by derivation of the best-fit line using a sigmoidal dose response model with technical triplicate data points.
# [4] = test system: A549 (NSCLC) cells; assay: Anti-proliferative activity, Cell-Titre luminescent viability assay; type: cell-based; settings: Homo sapiens, 72 h exposure, Cell-Titre luminescent reagent
# Summary of the method: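 Cells attached 24 h at 37° C., 5% CO2, then treated 72 h with compound at 0.3–100 μM or 0.1–30 μM. Viability read by Cell-Titre luminescence after 30 min reagent exposure, normalized to vehicle; EC50 from variable-slope sigmoidal nonlinear regression.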
structure (smiles),measurement,setting,value
"O=C(Nc1ccc(C(F)(F)F)cc1)c1ccn(S(=O)(=O)c2ccc3[nH]ccc3c2)c1 [Compound 26, 1-((1H-indol-5-yl)sulfonyl)-N-(4-(trifluoromethyl)phenyl)-1H-pyrrole-3-carboxamide]",Inhibition of Tpm3.1 protection of actin filaments from depolymerisation,[1],inhibit the ability of Tpm3.1 to protect actin filaments from depolymerisation
same,"Max. Synergy, Paclitaxel","[2]; combination with paclitaxel, Bliss score",7.83
same,"Total Synergy, Paclitaxel","[2]; combination with paclitaxel, sum of Bliss scores of the matrix",61.23
same,"Max. Synergy, Vinorelbine","[2]; combination with vinorelbine, Bliss score",10.86
same,"Total Synergy, Vinorelbine","[2]; combination with vinorelbine, sum of Bliss scores of the matrix",60.91
same,IC50,[3],12.5 µM
same,IC50,[4],6.8 µM
